This is an account of results in ChEMBL document CHEMBL1152274, “Discovery of potent and selective agonists for the free fatty acid receptor 1 (FFA(1)/GPR40), a potential target for the treatment of type II diabetes” (J Med Chem, 2008).

Assay [1] deals with Pancreatic islet. The assay can be described thus: Induction of glucose-stimulated insulin secretion in pancreatic islets cells isolated from FFA1-deficient mouse. The class given is functional, cell-based.
Assay [2] addresses T1, Free fatty acid receptor 3 (Homo sapiens) (UniProt O14843).
T1 sequence (whole entry): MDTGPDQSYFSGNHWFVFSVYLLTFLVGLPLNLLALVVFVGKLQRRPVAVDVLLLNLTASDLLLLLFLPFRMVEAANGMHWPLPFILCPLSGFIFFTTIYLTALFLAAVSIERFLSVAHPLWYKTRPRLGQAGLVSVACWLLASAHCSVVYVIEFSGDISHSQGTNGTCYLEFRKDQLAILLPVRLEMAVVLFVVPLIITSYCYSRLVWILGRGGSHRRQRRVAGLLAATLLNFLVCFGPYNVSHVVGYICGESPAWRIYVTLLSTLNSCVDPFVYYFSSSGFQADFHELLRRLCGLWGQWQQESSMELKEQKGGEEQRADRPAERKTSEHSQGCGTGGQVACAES
In words: Agonist activity at FFA3. The class given is functional.

The target in assay [3] is T2, Free fatty acid receptor 2 (Homo sapiens) (UniProt O15552).
T2 sequence (whole entry): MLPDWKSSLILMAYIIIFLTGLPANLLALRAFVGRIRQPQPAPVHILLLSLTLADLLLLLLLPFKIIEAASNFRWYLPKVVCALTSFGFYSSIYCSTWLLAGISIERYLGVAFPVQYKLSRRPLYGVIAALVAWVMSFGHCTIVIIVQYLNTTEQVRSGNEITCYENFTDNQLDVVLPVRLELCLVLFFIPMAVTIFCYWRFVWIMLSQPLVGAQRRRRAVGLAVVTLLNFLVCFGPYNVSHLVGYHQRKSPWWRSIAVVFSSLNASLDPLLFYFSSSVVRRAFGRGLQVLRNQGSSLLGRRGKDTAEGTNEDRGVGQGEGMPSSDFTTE
The assay can be described thus: Agonist activity at FFA2. The class given is functional.

Assay [4] relates to INS-1E. In words: Enhancement of glucose-stimulated insulin secretion in rat INS-1E cells at 3 uM. It counts as functional, cell-based.
For assay [5], the target named is T3, Free fatty acid receptor 1 (Homo sapiens, UniProt O14842). The assay can be described thus: Agonist activity at human FFA1 expressed in human 1321N1 cells by calcium fluorescence assay. The class given is functional, cell-based. The settings on record: for pEC50: read-out: EC50; for EC50: read-out: pEC50 (converted).
The test system of assay [6] is INS-1E. The assay can be described thus: Enhancement of insulin secretion in rat INS-1E cells in presence of 12 mM glucose. The class given is functional, cell-based.
Assay [7] addresses T3, Free fatty acid receptor 1. In words: Agonist activity at human FFA1 expressed in human 1321N1 cells by calcium fluorescence assay relative to 3-(4-(benzyloxy)phenyl)propionic acid. It counts as functional, cell-based.
Assay [8] concerns INS-1E. The assay can be described thus: Reduction of basal insulin secretion in rat INS-1E cells in presence of 2.8 mM glucose. The class given is functional, cell-based.
In assay [9] the test system is Pancreatic islet. In words: Induction of glucose-stimulated insulin secretion in pancreatic islets cells isolated from wild type mouse. It counts as functional, cell-based.
Assay [10] deals with INS-1E. The assay can be described thus: Enhancement of palmitate-stimulated insulin secretion in rat INS-1E cells at 10 uM. The class given is functional, cell-based.
In assay [11] the target is T3, Free fatty acid receptor 1. In words: Agonist activity at human FFA1 expressed in human 1321N1 cells up to 31.6 uM by calcium fluorescence assay. The class given is functional, cell-based.

pEC50: −log10 of the molar value. Calls of active or inactive are those of the source. The rule behind the calls is not given here.

T3 sequence (O14842 whole entry): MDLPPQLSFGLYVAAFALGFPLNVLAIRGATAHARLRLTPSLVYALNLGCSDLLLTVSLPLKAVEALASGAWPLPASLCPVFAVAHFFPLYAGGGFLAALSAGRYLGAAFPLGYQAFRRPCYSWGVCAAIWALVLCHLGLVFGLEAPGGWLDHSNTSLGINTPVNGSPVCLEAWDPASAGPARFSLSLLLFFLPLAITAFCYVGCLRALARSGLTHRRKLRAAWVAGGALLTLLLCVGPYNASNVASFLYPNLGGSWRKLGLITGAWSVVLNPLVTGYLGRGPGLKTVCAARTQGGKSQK

As a reminder, the pEC50 is the negative decadic logarithm of the EC50, by convention in mol/L. On to `Cc1ccccc1C#Cc1ccc(CCC(=O)O)cc1`, for which the result (in the assay on Pancreatic islet [1]; in [2]; in assay [3]; with Pancreatic islet [9]) was inactive. Also, the result with INS-1E [4], in the assay with INS-1E [6], with INS-1E [8] and in the assay with INS-1E [10] was Active. For the same molecule, the pEC50 in assay [5] was 7.49. Further, the Activity in [7] amounted to 105%.

For the molecule `O=C(O)COc1ccc(C#Cc2ccc(CO)cc2)cc1`, the outcome in assay [2], in assay [3] and in assay [11] was inactive.

On to `O=Cc1cccc(C#Cc2ccc(CCC(=O)O)cc2)c1`, for which the outcome in [2] and in assay [3] was inactive. Moreover, the Activity in [7] was 94%.

`O=C(O)CCc1ccc(C#Cc2cccc([N+](=O)[O-])c2)cc1`: the result in [2] and in [3] was inactive. Further, the EC50 in [5] was 58.9 nM. In assay [7], the Activity was determined as 94%.

For `Cc1ccccc1C#Cc1ccc(OCC(=O)O)cc1`, the result in assay [2] and in assay [3] was inactive. Further, in assay [5], the EC50 was 3720 nM. The Activity in assay [7] came out at 96%.

Take `O=C(O)CCc1ccc(C#Cc2cccc(C(F)(F)F)c2)cc1`: the outcome in assay [2] and in assay [3] was inactive. In addition, the Activity in assay [7] is 98%.

As to `N#Cc1cccc(C#Cc2ccc(CCC(=O)O)cc2)c1`, the outcome in [2] and in [3] was inactive. The Activity in assay [7] was found to be 92%.

For `Cc1cccc(C#Cc2ccc(CCC(=O)O)cc2)c1C`, the outcome in [2] and in [3] was inactive. For the same molecule, the Activity in [7] was 108%.

`Cc1ccc(C#Cc2ccc(OCC(=O)O)cc2)cc1`: the result in [2], in assay [3] and in assay [11] was inactive.

Turning to `O=C(O)CCc1ccc(C#Cc2cccc3ccccc23)cc1`, the result in assay [2] and in [3] was inactive. Besides, the EC50 in [5] was 85.1 nM. In assay [7], the Activity was determined as 100%.

On to `Cc1cccc(C#Cc2ccc(OCC(=O)O)cc2)c1`, for which the outcome in assay [2] and in assay [3] was inactive. For the same molecule, the EC50 in assay [5] was 513 nM. The Activity in [7] is 113%.

In the case of `Nc1cccc(C#Cc2ccc(CCC(=O)O)cc2)c1`, the result in [2] and in assay [3] was inactive. In addition, in assay [7], the Activity came to 96%.

With `Cc1cc(C)cc(C#Cc2ccc(CCC(=O)O)cc2)c1`, the result in [2] and in [3] was inactive. Further, the Activity in assay [7] was found to be 101%.

In the case of `C#Cc1cccc(C#Cc2ccc(CCC(=O)O)cc2)c1`, the outcome in assay [2] and in assay [3] was inactive. For the same molecule, the Activity in [7] was determined as 100%.

Regarding `O=C(O)COc1ccc(C#Cc2ccccc2)cc1`, the outcome in [2] and in assay [3] was inactive. Further, the EC50 in assay [5] is 1260 nM. In addition, the Activity in assay [7] came out at 104%.

With `O=C(O)COc1ccc(C#Cc2cccc(O)c2)cc1`, the result in assay [2] and in [3] was inactive. Further, the EC50 in assay [5] is 5620 nM. The Activity in [7] is 86%.

Turning to `Cc1cccc(C#Cc2ccc(CCC(=O)O)cc2)c1`, the outcome in assay [2] and in assay [3] was inactive. Also, the Activity in assay [7] is 109%.

In the case of `Cc1ccc(C#Cc2ccc(CCC(=O)O)cc2)cc1`, the result in assay [2] and in assay [3] was inactive. Besides, the EC50 in assay [5] is 107 nM. The Activity in assay [7] amounted to 99%.

For `O=C(O)CCc1ccc(C#Cc2ccccc2)cc1`, the result in assay [2] and in assay [3] was inactive. For the same molecule, the pEC50 in [5] was 7.02. Further, the Activity in assay [7] is 106%.

For `O=C(O)COc1ccc(C#Cc2ccc(O)cc2)cc1`, the result in assay [2], in assay [3] and in assay [11] was inactive.

In the case of `O=C(O)CCc1ccc(C#Cc2cccc(CO)c2)cc1`, the result in assay [2] and in assay [3] was inactive. The Activity in assay [7] was 103%.
